pEC50: −log10 of the molar value. Values after ≈ are worked out from the molar mass of the structure shown.
tested on: Respiratory syncytial virus; test: Antiviral activity against Respiratory syncytial virus A2 infected in human Hep2 cells after 3 days by ELISA; format: functional, organism-based; details: A2, HEp-2, 72 h

Question: With `O=C(NC1CC1)c1cc2c(s1)-c1ccccc1N(C(=O)c1ccc(NC(=O)c3cccnc3N3CCN(CCO)CC3)cc1)CC2` as the molecule, how does the pEC50 read?
Answer: 5.10

Question: With `O=C(NC1CC1)c1cc2c(s1)-c1ccccc1N(C(=O)c1ccc(NC(=O)c3cccnc3N3CC[S+]([O-])CC3)cc1)CC2` as the molecule, how does the pEC50 read?
Answer: 5.02

Question: With `O=C(NC1CC1)c1cc2c(s1)-c1ccccc1N(C(=O)c1ccc(NC(=O)c3cccnc3N3CCS(=O)(=O)CC3)cc1)CC2` as the molecule, how does the pEC50 read?
Answer: 5.66

Question: With `CN(C)CC1(O)CN(c2ncccc2C(=O)Nc2ccc(C(=O)N3CCc4cc(C(=O)NC5CC5)sc4-c4ccccc43)cc2)C1` as the molecule, how does the pEC50 read?
Answer: < 4.30

Question: With `O=C(NC1CC1)c1cc2c(s1)-c1ccccc1N(C(=O)c1ccc(NC(=O)c3cccnc3N3CCC4(CC3)COC4)cc1)CC2` as the molecule, how does the pEC50 read?
Answer: 8.00

Question: With `CN1CC2(CCN(c3ncccc3C(=O)Nc3ccc(C(=O)N4CCc5cc(C(=O)NC6CC6)sc5-c5ccccc54)cc3)CC2)C1` as the molecule, how does the pEC50 read?
Answer: 4.47

Question: With `CC(=O)N1CC2(CCN(c3ncccc3C(=O)Nc3ccc(C(=O)N4CCc5cc(C(=O)NC6CC6)sc5-c5ccccc54)cc3)CC2)C1` as the molecule, how does the pEC50 read?
Answer: 5.28

Question: With `O=C(NC1CC1)c1cc2c(s1)-c1ccccc1N(C(=O)c1ccc(NC(=O)c3cccnc3N3CCCC3)cc1)CC2` as the molecule, how does the pEC50 read?
Answer: 6.82

Question: With `O=C(NC1CC1)c1cc2c(s1)-c1ccccc1N(C(=O)c1ccc(NC(=O)c3cccnc3N3CCCC3)cn1)CC2` as the molecule, how does the pEC50 read?
Answer: 5.62

tested on: not listed separately; test: Cytotoxicity against hamster BHK21 cells; format: cell-based, Mesocricetus auratus, BHK-21; details: not given

Question: For `O=C(NC1CC1)c1cc2c(s1)-c1ccccc1N(C(=O)[C@H]1CC[C@H](NC(=O)c3cccnc3N3CCCC3)CC1)CC2`, which CC50 is on record?
Answer: > 50 µM

Question: Which CC50 does the source give for `O=C(NC1CC1)c1cc2c(s1)-c1ccccc1N(C(=O)N1CCC(NC(=O)c3cccnc3N3CCCC3)CC1)CC2` here?
Answer: > 50 µM

Question: For `O=C(NC1CC1)c1cc2c(s1)-c1ccccc1N(C(=O)[C@H]1C[C@@H](NC(=O)c3cccnc3N3CCCC3)C1)CC2`, which CC50 is on record?
Answer: > 50 µM

Question: Which CC50 does the source give for `O=C(NC1CC1)c1cc2c(s1)-c1ccccc1N(C(=O)[C@H]1C[C@H](NC(=O)c3cccnc3N3CCCC3)C1)CC2` here?
Answer: > 50 µM

Question: Which CC50 does the source give for `O=C(NC1CC1)c1cc2c(s1)-c1ccccc1N(C(=O)c1ccc(NC(=O)c3cccnc3N3CCCC3)cc1)CC2` here?
Answer: > 50 µM

Question: With `O=C(NC1CC1)c1cc2c(s1)-c1ccccc1N(C(=O)c1ccc(NC(=O)c3cccnc3N3CCCC3)cn1)CC2` as the molecule, how does the CC50 read?
Answer: > 50 µM

tested on: Respiratory syncytial virus; test: Antiviral activity against Respiratory syncytial virus B-Washington infected in human Hep2 cells after 3 days by ELISA; format: functional, organism-based; details: HEp-2, 72 h

Question: With `O=C(NC1CC1)c1cc2c(s1)-c1ccccc1N(C(=O)c1ccc(NC(=O)c3cccnc3N3CCN(CCO)CC3)cc1)CC2` as the molecule, how does the pEC50 read?
Answer: < 4.30

Question: With `O=C(NC1CC1)c1cc2c(s1)-c1ccccc1N(C(=O)c1ccc(NC(=O)c3cccnc3N3CC[S+]([O-])CC3)cc1)CC2` as the molecule, how does the pEC50 read?
Answer: < 4.30

Question: With `O=C(NC1CC1)c1cc2c(s1)-c1ccccc1N(C(=O)c1ccc(NC(=O)c3cccnc3N3CCS(=O)(=O)CC3)cc1)CC2` as the molecule, how does the pEC50 read?
Answer: < 4.30

Question: With `CN(C)CC1(O)CN(c2ncccc2C(=O)Nc2ccc(C(=O)N3CCc4cc(C(=O)NC5CC5)sc4-c4ccccc43)cc2)C1` as the molecule, how does the pEC50 read?
Answer: < 4.30

Question: With `O=C(NC1CC1)c1cc2c(s1)-c1ccccc1N(C(=O)c1ccc(NC(=O)c3cccnc3N3CCC4(CC3)COC4)cc1)CC2` as the molecule, how does the pEC50 read?
Answer: 6.00

Question: With `CN1CC2(CCN(c3ncccc3C(=O)Nc3ccc(C(=O)N4CCc5cc(C(=O)NC6CC6)sc5-c5ccccc54)cc3)CC2)C1` as the molecule, how does the pEC50 read?
Answer: 4.77

Question: With `CC(=O)N1CC2(CCN(c3ncccc3C(=O)Nc3ccc(C(=O)N4CCc5cc(C(=O)NC6CC6)sc5-c5ccccc54)cc3)CC2)C1` as the molecule, how does the pEC50 read?
Answer: 4.41

Question: With `O=C(NC1CC1)c1cc2c(s1)-c1ccccc1N(C(=O)c1ccc(NC(=O)c3cccnc3N3CCCC3)cc1)CC2` as the molecule, how does the pEC50 read?
Answer: < 4.30

Question: With `O=C(NC1CC1)c1cc2c(s1)-c1ccccc1N(C(=O)c1ccc(NC(=O)c3cccnc3N3CCCC3)cn1)CC2` as the molecule, how does the pEC50 read?
Answer: < 4.30

tested on: not listed separately; test: Aqueous solubility of the compound; format: physicochemical; details: buffer

Question: With `O=C(NC1CC1)c1cc2c(s1)-c1ccccc1N(C(=O)[C@H]1CC[C@H](NC(=O)c3cccnc3N3CCCC3)CC1)CC2` as the molecule, how does the solubility read?
Answer: 11 µM (≈ 6.42 µg/mL)

Question: For `O=C(NC1CC1)c1cc2c(s1)-c1ccccc1N(C(=O)N1CCC(NC(=O)c3cccnc3N3CCCC3)CC1)CC2`, which solubility is on record?
Answer: 26 µM (≈ 15.2 µg/mL)

Question: With `O=C(NC1CC1)c1cc2c(s1)-c1ccccc1N(C(=O)[C@H]1C[C@@H](NC(=O)c3cccnc3N3CCCC3)C1)CC2` as the molecule, how does the solubility read?
Answer: 2 µM (≈ 1.11 µg/mL)

Question: With `O=C(NC1CC1)c1cc2c(s1)-c1ccccc1N(C(=O)[C@H]1C[C@H](NC(=O)c3cccnc3N3CCCC3)C1)CC2` as the molecule, how does the solubility read?
Answer: 3 µM (≈ 1.67 µg/mL)

Question: Which solubility does the source give for `O=C(NC1CC1)c1cc2c(s1)-c1ccccc1N(C(=O)c1ccc(NC(=O)c3cccnc3N3CCN(CCO)CC3)cc1)CC2` here?
Answer: 40 µM (≈ 25.5 µg/mL)

Question: With `O=C(NC1CC1)c1cc2c(s1)-c1ccccc1N(C(=O)c1ccc(NC(=O)c3cccnc3N3CC[S+]([O-])CC3)cc1)CC2` as the molecule, how does the solubility read?
Answer: 26 µM (≈ 16.3 µg/mL)

Question: Which solubility does the source give for `O=C(NC1CC1)c1cc2c(s1)-c1ccccc1N(C(=O)c1ccc(NC(=O)c3cccnc3N3CCS(=O)(=O)CC3)cc1)CC2` here?
Answer: 4 µM (≈ 2.57 µg/mL)

Question: For `CN(C)CC1(O)CN(c2ncccc2C(=O)Nc2ccc(C(=O)N3CCc4cc(C(=O)NC5CC5)sc4-c4ccccc43)cc2)C1`, which solubility is on record?
Answer: > 100 µM

Question: With `O=C(NC1CC1)c1cc2c(s1)-c1ccccc1N(C(=O)c1ccc(NC(=O)c3cccnc3N3CCC4(CC3)COC4)cc1)CC2` as the molecule, how does the solubility read?
Answer: 2 µM (≈ 1.27 µg/mL)

Question: Which solubility does the source give for `CN1CC2(CCN(c3ncccc3C(=O)Nc3ccc(C(=O)N4CCc5cc(C(=O)NC6CC6)sc5-c5ccccc54)cc3)CC2)C1` here?
Answer: 55 µM (≈ 35.6 µg/mL)

Question: With `CC(=O)N1CC2(CCN(c3ncccc3C(=O)Nc3ccc(C(=O)N4CCc5cc(C(=O)NC6CC6)sc5-c5ccccc54)cc3)CC2)C1` as the molecule, how does the solubility read?
Answer: 4 µM (≈ 2.7 µg/mL)

Question: For `O=C(NC1CC1)c1cc2c(s1)-c1ccccc1N(C(=O)c1ccc(NC(=O)c3cccnc3N3CCCC3)cc1)CC2`, which solubility is on record?
Answer: < 1 µM

Question: With `O=C(NC1CC1)c1cc2c(s1)-c1ccccc1N(C(=O)c1ccc(NC(=O)c3cccnc3N3CCCC3)cn1)CC2` as the molecule, how does the solubility read?
Answer: 3 µM (≈ 1.74 µg/mL)

tested on: Respiratory syncytial virus; test: Antiviral activity against Respiratory syncytial virus A2 infected in hamster BHK21 cells after 2 days by luciferase reporter gene assay; format: functional, organism-based; details: human respiratory syncytial virus, A2, BHK-21, 48 h

Question: With `O=C(NC1CC1)c1cc2c(s1)-c1ccccc1N(C(=O)[C@H]1CC[C@H](NC(=O)c3cccnc3N3CCCC3)CC1)CC2` as the molecule, how does the pEC50 read?
Answer: < 4.30

Question: With `O=C(NC1CC1)c1cc2c(s1)-c1ccccc1N(C(=O)N1CCC(NC(=O)c3cccnc3N3CCCC3)CC1)CC2` as the molecule, how does the pEC50 read?
Answer: 4.85

Question: With `O=C(NC1CC1)c1cc2c(s1)-c1ccccc1N(C(=O)[C@H]1C[C@@H](NC(=O)c3cccnc3N3CCCC3)C1)CC2` as the molecule, how does the pEC50 read?
Answer: < 4.30

Question: With `O=C(NC1CC1)c1cc2c(s1)-c1ccccc1N(C(=O)[C@H]1C[C@H](NC(=O)c3cccnc3N3CCCC3)C1)CC2` as the molecule, how does the pEC50 read?
Answer: 4.80

Question: With `O=C(NC1CC1)c1cc2c(s1)-c1ccccc1N(C(=O)c1ccc(NC(=O)c3cccnc3N3CCN(CCO)CC3)cc1)CC2` as the molecule, how does the pEC50 read?
Answer: 4.89

Question: With `O=C(NC1CC1)c1cc2c(s1)-c1ccccc1N(C(=O)c1ccc(NC(=O)c3cccnc3N3CC[S+]([O-])CC3)cc1)CC2` as the molecule, how does the pEC50 read?
Answer: 4.92

Question: With `O=C(NC1CC1)c1cc2c(s1)-c1ccccc1N(C(=O)c1ccc(NC(=O)c3cccnc3N3CCS(=O)(=O)CC3)cc1)CC2` as the molecule, how does the pEC50 read?
Answer: 5.44

Question: With `CN(C)CC1(O)CN(c2ncccc2C(=O)Nc2ccc(C(=O)N3CCc4cc(C(=O)NC5CC5)sc4-c4ccccc43)cc2)C1` as the molecule, how does the pEC50 read?
Answer: < 4.30

Question: With `O=C(NC1CC1)c1cc2c(s1)-c1ccccc1N(C(=O)c1ccc(NC(=O)c3cccnc3N3CCC4(CC3)COC4)cc1)CC2` as the molecule, how does the pEC50 read?
Answer: 8.00

Question: With `CN1CC2(CCN(c3ncccc3C(=O)Nc3ccc(C(=O)N4CCc5cc(C(=O)NC6CC6)sc5-c5ccccc54)cc3)CC2)C1` as the molecule, how does the pEC50 read?
Answer: 5.07

Question: With `CC(=O)N1CC2(CCN(c3ncccc3C(=O)Nc3ccc(C(=O)N4CCc5cc(C(=O)NC6CC6)sc5-c5ccccc54)cc3)CC2)C1` as the molecule, how does the pEC50 read?
Answer: 5.05

Question: With `O=C(NC1CC1)c1cc2c(s1)-c1ccccc1N(C(=O)c1ccc(NC(=O)c3cccnc3N3CCCC3)cc1)CC2` as the molecule, how does the pEC50 read?
Answer: 6.51

Question: With `O=C(NC1CC1)c1cc2c(s1)-c1ccccc1N(C(=O)c1ccc(NC(=O)c3cccnc3N3CCCC3)cn1)CC2` as the molecule, how does the pEC50 read?
Answer: 5.43

tested on: not listed separately; test: Absorption half life in rat lungs at 10 ug/kg administered intratracheally as solution; format: ADME, tissue-based; details: lung, inhaled or intranasal, 0.01 mg/kg, read-out: t1/2abs

Question: For `O=C(NC1CC1)c1cc2c(s1)-c1ccccc1N(C(=O)c1ccc(NC(=O)c3cccnc3N3CCC4(CC3)COC4)cc1)CC2`, which half-life is on record?
Answer: < 1 min

tested on: not listed separately; test: Cytotoxicity against human Hep2 cells; format: cell-based, HEp-2; details: not given

Question: With `O=C(NC1CC1)c1cc2c(s1)-c1ccccc1N(C(=O)c1ccc(NC(=O)c3cccnc3N3CCN(CCO)CC3)cc1)CC2` as the molecule, how does the CC50 read?
Answer: > 50 µM

Question: For `O=C(NC1CC1)c1cc2c(s1)-c1ccccc1N(C(=O)c1ccc(NC(=O)c3cccnc3N3CC[S+]([O-])CC3)cc1)CC2`, which CC50 is on record?
Answer: > 50 µM

Question: Which CC50 does the source give for `O=C(NC1CC1)c1cc2c(s1)-c1ccccc1N(C(=O)c1ccc(NC(=O)c3cccnc3N3CCS(=O)(=O)CC3)cc1)CC2` here?
Answer: > 50 µM

Question: With `CN(C)CC1(O)CN(c2ncccc2C(=O)Nc2ccc(C(=O)N3CCc4cc(C(=O)NC5CC5)sc4-c4ccccc43)cc2)C1` as the molecule, how does the CC50 read?
Answer: > 50 µM

Question: With `O=C(NC1CC1)c1cc2c(s1)-c1ccccc1N(C(=O)c1ccc(NC(=O)c3cccnc3N3CCC4(CC3)COC4)cc1)CC2` as the molecule, how does the CC50 read?
Answer: > 50 µM

Question: For `CN1CC2(CCN(c3ncccc3C(=O)Nc3ccc(C(=O)N4CCc5cc(C(=O)NC6CC6)sc5-c5ccccc54)cc3)CC2)C1`, which CC50 is on record?
Answer: 34 µM

Question: Which CC50 does the source give for `CC(=O)N1CC2(CCN(c3ncccc3C(=O)Nc3ccc(C(=O)N4CCc5cc(C(=O)NC6CC6)sc5-c5ccccc54)cc3)CC2)C1` here?
Answer: 34 µM

Question: Which CC50 does the source give for `O=C(NC1CC1)c1cc2c(s1)-c1ccccc1N(C(=O)c1ccc(NC(=O)c3cccnc3N3CCCC3)cc1)CC2` here?
Answer: > 50 µM

— ChEMBL document CHEMBL3091401, “Discovery of a potent respiratory syncytial virus RNA polymerase inhibitor” (Bioorg Med Chem Lett, 2013)
